In one assay the test system is human EM CD8 T cells. The assay is described as follows: Flow cytometry of surface activation markers on EM CD8 T cells. The format is cell-based. The settings on record: 24 h plate-bound anti-CD3 and soluble anti-CD28 Ab; 0 mM vs 1.2 mM Mg^2+. How it is done: FIG. 2: Extracellular magnesium promotes memory-specific activation via LFA-1. Glycolytic switch of human EM CD8 T cells (a) and naïve CD8 T cells (b) subsets upon injection of anti-CD3 Ab only, or anti-CD3 and anti-CD28 Ab, was assessed by metabolic flux analysis in medium containing either 1.2 mM Mg^2+, 0 mM Mg^2+, or medium which was reconstituted from 0 mM to 1.2 mM Mg^2+ immediately prior to activation (0→1.2 mM Mg^2+). (a) Results for human effector memory (EM) and (b) for human naïve CD8 T cells. Glycolytic switch was quantified by subtracting […] measurements. (c) Flow cytometric analysis of surface activation markers on human EM CD8 T cells 24 hours after activation by plate-bound anti-CD3 Ab and soluble anti-CD28 Ab, in 1.2 mM and 0 mM Mg^2+ media, respectively. (d) Abundance of inflammatory cytokines in corresponding EM CD8 T cell culture supernatants, determined by CBA. (e) CD11a (LFA-1) surface expression on human naïve and EM CD8 T cells as well PHA T cell blasts. Flow cytometry-based assessment of total LFA-1 expression assessed by mAb TS2/4 (f), closed conformation of αL by mAb HI111 (g), extended conformation of LFA-1 by mAb Kim127 (h), open head-piece conformation of LFA-1 by mAb m24 (i), phosphorylation of focal adhesion kinase (FAK) […] as well TNF expression (k)±TCR-induced activation in different extracellular Mg^2+ concentrations. (l) Flow cytometry-based assessment of LFA-1 with open-head piece conformation on human EM and naïve CD8 T cells using the open head-piece reporter mAb m24. (m) Assessment of glycolytic switch of EM CD8 T cells. (n) Assessment of glycolytic switch of naïve CD8 T cells. […] Naïve CD8 T cells were activated with in house generated anti-CD3/anti-CD28 coated microbeads. Polybead microspheres ([…], Polyscience […]) were incubated with 1 μg anti-CD3 Ab and 10 μg anti-CD28 Ab. […] Primary human T cells were activated for 24 h and PHA-blasts for 4 h. For analysis of surface markers, T cells were harvested at indicated time points, washed once in cold PBS and, if required, stained with Fixable Viability Dyes for 15 min at 4° C. Surface markers were stained with appropriate antibodies for 20 min at 4° C.
(In general: Flow cytometry measures light scatter and fluorescence of single cells or particles in a stream.)

The next assay concerns MC38-OVA tumor cells. The assay is described as follows: Murine MC38-OVA tumor model, in vivo PD-1 blockade. As to conditions: OVA immunized mice; 3 mM MgCl2 or NaCl i.t. every third day, 8 cycles; anti-PD-1 Ab or isotype 200 μg i.p. day 9, 12, 15. As for the experimental part: FIG. 1: Intratumoral magnesium administration improves adaptive anti-tumor immunity. (a) Schematic of experimental design. B1/6 mice, either immunized with OVA or left untreated, were inoculated subcutaneously with MC38-OVA tumor cells bilaterally on the flanks. From day 7, injection of 3 mM NaCl solution was applied in left flank tumor, whereas 3 mM MgCl2 solution was injected in contralateral tumor. This regimen was repeated every third day for a total of 8 cycles. (b) Tumor growth curves in non-immunized mice (n=20) (left panel), and immunized mice (n=19) (right panel). (c) Tumor growth curves in ±CD8 depleted mice (n=6-17). Results were pooled from 2 independent experiments, with n=6-12 mice each. (d) Absolute numbers of tumor-infiltrating CD8^+ T cells. (e) Number of tumor-infiltrating CD8^+ T cells positive for Ki67 (left panel), Granzyme B (middle panel) and CD25 (right panel). (f) Cell number of tumor-infiltrating CD8^+ T cells expressing PD-1 and Tim3. (g) Schematic of experimental design. B1/6 mice, immunized with OVA, were inoculated subcutaneously with MC38-OVA tumor cells unilaterally on the flank. From day 5, intratumoral injections of either 3 mM NaCl or 3 mM MgCl2 were initiated, and repeated every third day for 8 cycles. Mice were additionally injected with 200 μg i.p. of isotype control (IgG2a) or anti-PD-1 Ab on day 9, 12, and 15. […]

Molecules are shown by their SMILES.

`[Mg+2]` [Mg^2+, Magnesium]: in the assay with human EM CD8 T cells, the CD25 surface expression entry is listed as “failed to upregulate”, the CD69 surface expression result is listed as “failed to upregulate”, the CD71 surface expression result was “failed to upregulate” and the CD98 surface expression entry is given as “failed to upregulate”. In addition, the “CD107a surface expression (degranulation)” value in the assay with human EM CD8 T cells was “failed to upregulate”. In addition, in the assay on MC38-OVA tumor cells, the Host survival result was “significantly improved animal survival” and the Tumor growth entry is “improving immune control significantly”.

(Values after patent publication US20240010726A1, “LFA-1 SIGNALLING MEDIATOR FOR USE IN CANCER THERAPY” (Universität Basel, priority 2020, published 2024).)
